Measurements taken from PubChem BioAssay (NCI).
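1) Cells in 96-well plates. 2) Compound, 48 h, 5 concentrations. 3) Linear interpolation between surrounding doses. 4) Unreached endpoint = highest concentration. TGI is the concentration that stops growth completely.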

Tested on: HCT-116 colon
Experiment: NCI anticancer screen, dose series, 48 h

| SMILES | TGI [µM] |
| --- | --- |
| CCCC(=O)N1CCN(c2ccc3c(c2)OC(C)O3)CC1 (stereo not given) | > 100 |
| COC(=O)C1=C(O)c2ccc(Cl)cc2S(=O)(=O)N1C | > 100 |
| CCOC(=O)[C@H](C)OC(=O)[C@@](C)(NC(=O)c1ccccc1C(=O)OC)[C@@H]1NC=C(C(=O)OC)CS1 | > 100 |
| CC1(C)OC2C(O)C(CO)OC2(C(F)F)O1 (stereo not given) | > 100 |
| COCOC1C=CCCCC2=CC(C)=C(CC1)O2 (stereo not given) | > 100 |
| Cn1c2ccccc2c(=O)c2cccc(C(=O)NC(CS)C(=O)O)c21 (stereo not given) | > 100 |
| COc1ccc(-c2cc3ccccc3oc2=O)cc1OC | > 100 |
| CCC(=O)O[C@H]1CC[C@H]2[C@@H]3CCC4=C/C(=N/OC(=O)c5cccc6cc7ccccc7nc56)CC[C@]4(C)[C@H]3CC[C@]12C | > 100 |
| CC(=O)OCC1OC(n2c(C)cc(C)c(C#N)c2=S)C(OC(C)=O)C(OC(C)=O)C1OC(C)=O (stereo not given) | > 100 |
| COC(=O)NC(C(F)(F)F)(C(F)(F)F)P1(=O)OCCCO1 | 62 |
| CNCCCn1c2ccccc2c2c3c(c(-c4ccsc4)cc21)C(=O)NC3=O | 2.79 |
| Cc1cc(/N=C/c2ccc(F)cc2)n(-c2ccccc2)n1 | > 100 |
| CCOC(=O)/C=C(/C(=O)OCC)n1cnc2c(=O)[nH]c(NC(C)=O)nc21 | > 100 |
| Nc1ccn([C@H]2CO[C@@H](CO)[C@@H]2O)c(=O)n1 | > 100 |
| O=C1NC(N/N=C\C(O)C(O)C(O)C(O)CO)=N/C1=C/c1ccc(Cl)cc1 (stereo not given) | > 100 |
| CCOC(=O)Cc1ccc(Nc2nc3ccccc3nc2C(=O)OCC)cc1 | > 100 |
| CC(C)[Si]1(C(C)C)OCC2OC3(CO)C(Oc4nc(=O)ccn43)C2O[Si](C(C)C)(C(C)C)O1 (stereo not given) | 24.7 |
| CC(C)(C)[Si](C)(C)Oc1ccc(C2CNC(=O)C23CCC(=O)N3Cc2ccccc2)cc1 (stereo not given) | > 100 |

Tested on: UO-31 renal
Experiment: NCI anticancer screen, dose series, 48 h

| SMILES | TGI [µM] |
| --- | --- |
| O=C(N(O)c1ccccc1Cl)C(O)(c1ccccc1)c1ccccc1 | 57.9 |
| CCOC(=O)c1nc2cc(F)c(N3CCOCC3)cc2[nH]c1=O | > 100 |
| CCCC(=O)N1CCN(c2ccc3c(c2)OC(C)O3)CC1 (stereo not given) | > 100 |
| CCOC(=O)[C@H](C)OC(=O)[C@@](C)(NC(=O)c1ccccc1C(=O)OC)[C@@H]1NC=C(C(=O)OC)CS1 | > 100 |
| CC1(C)OC2C(O)C(CO)OC2(C(F)F)O1 (stereo not given) | > 100 |
| COCOC1C=CCCCC2=CC(C)=C(CC1)O2 (stereo not given) | > 100 |
| Cn1c2ccccc2c(=O)c2cccc(C(=O)NC(CS)C(=O)O)c21 (stereo not given) | > 100 |
| COc1ccc(-c2cc3ccccc3oc2=O)cc1OC | > 100 |
| CC(=O)OCC1OC(n2c(C)cc(C)c(C#N)c2=S)C(OC(C)=O)C(OC(C)=O)C1OC(C)=O (stereo not given) | > 100 |
| COC(=O)NC(C(F)(F)F)(C(F)(F)F)P1(=O)OCCCO1 | 65.6 |
| CNCCCn1c2ccccc2c2c3c(c(-c4ccsc4)cc21)C(=O)NC3=O | 0.218 |
| Cc1cc(/N=C/c2ccc(F)cc2)n(-c2ccccc2)n1 | > 100 |
| CCOC(=O)/C=C(/C(=O)OCC)n1cnc2c(=O)[nH]c(NC(C)=O)nc21 | > 100 |
| Nc1ccn([C@H]2CO[C@@H](CO)[C@@H]2O)c(=O)n1 | > 100 |
| O=C1NC(N/N=C\C(O)C(O)C(O)C(O)CO)=N/C1=C/c1ccc(Cl)cc1 (stereo not given) | > 100 |
| CCOC(=O)Cc1ccc(Nc2nc3ccccc3nc2C(=O)OCC)cc1 | 41.3 |
| CC(C)[Si]1(C(C)C)OCC2OC3(CO)C(Oc4nc(=O)ccn43)C2O[Si](C(C)C)(C(C)C)O1 (stereo not given) | 27.2 |
| CC(C)(C)[Si](C)(C)Oc1ccc(C2CNC(=O)C23CCC(=O)N3Cc2ccccc2)cc1 (stereo not given) | 32.9 |

Tested on: M14 melanoma
Experiment: NCI anticancer screen, dose series, 48 h

| SMILES | TGI [µM] |
| --- | --- |
| O=C(N(O)c1ccccc1Cl)C(O)(c1ccccc1)c1ccccc1 | > 100 |
| CCOC(=O)c1nc2cc(F)c(N3CCOCC3)cc2[nH]c1=O | > 100 |
| CCCC(=O)N1CCN(c2ccc3c(c2)OC(C)O3)CC1 (stereo not given) | > 100 |
| COC(=O)C1=C(O)c2ccc(Cl)cc2S(=O)(=O)N1C | > 100 |
| CCOC(=O)[C@H](C)OC(=O)[C@@](C)(NC(=O)c1ccccc1C(=O)OC)[C@@H]1NC=C(C(=O)OC)CS1 | > 100 |
| CC1(C)OC2C(O)C(CO)OC2(C(F)F)O1 (stereo not given) | > 100 |
| COCOC1C=CCCCC2=CC(C)=C(CC1)O2 (stereo not given) | > 100 |
| Cn1c2ccccc2c(=O)c2cccc(C(=O)NC(CS)C(=O)O)c21 (stereo not given) | > 100 |
| COc1ccc(-c2cc3ccccc3oc2=O)cc1OC | > 100 |
| CCC(=O)O[C@H]1CC[C@H]2[C@@H]3CCC4=C/C(=N/OC(=O)c5cccc6cc7ccccc7nc56)CC[C@]4(C)[C@H]3CC[C@]12C | > 100 |
| CC(=O)OCC1OC(n2c(C)cc(C)c(C#N)c2=S)C(OC(C)=O)C(OC(C)=O)C1OC(C)=O (stereo not given) | > 100 |
| COC(=O)NC(C(F)(F)F)(C(F)(F)F)P1(=O)OCCCO1 | > 100 |
| CNCCCn1c2ccccc2c2c3c(c(-c4ccsc4)cc21)C(=O)NC3=O | 1.7 |
| Cc1cc(/N=C/c2ccc(F)cc2)n(-c2ccccc2)n1 | > 100 |
| CCOC(=O)/C=C(/C(=O)OCC)n1cnc2c(=O)[nH]c(NC(C)=O)nc21 | > 100 |
| O=C1NC(N/N=C\C(O)C(O)C(O)C(O)CO)=N/C1=C/c1ccc(Cl)cc1 (stereo not given) | > 100 |
| CCOC(=O)Cc1ccc(Nc2nc3ccccc3nc2C(=O)OCC)cc1 | > 100 |
| CC(C)[Si]1(C(C)C)OCC2OC3(CO)C(Oc4nc(=O)ccn43)C2O[Si](C(C)C)(C(C)C)O1 (stereo not given) | 30.4 |
| CC(C)(C)[Si](C)(C)Oc1ccc(C2CNC(=O)C23CCC(=O)N3Cc2ccccc2)cc1 (stereo not given) | 35 |

Tested on: NCI-H522 lung
Experiment: NCI anticancer screen, dose series, 48 h

| SMILES | TGI [µM] |
| --- | --- |
| O=C(N(O)c1ccccc1Cl)C(O)(c1ccccc1)c1ccccc1 | > 100 |
| CCOC(=O)c1nc2cc(F)c(N3CCOCC3)cc2[nH]c1=O | > 100 |
| CCCC(=O)N1CCN(c2ccc3c(c2)OC(C)O3)CC1 (stereo not given) | > 100 |
| COC(=O)C1=C(O)c2ccc(Cl)cc2S(=O)(=O)N1C | > 100 |
| CCOC(=O)[C@H](C)OC(=O)[C@@](C)(NC(=O)c1ccccc1C(=O)OC)[C@@H]1NC=C(C(=O)OC)CS1 | > 100 |
| CC1(C)OC2C(O)C(CO)OC2(C(F)F)O1 (stereo not given) | > 100 |
| COCOC1C=CCCCC2=CC(C)=C(CC1)O2 (stereo not given) | > 100 |
| COc1ccc(-c2cc3ccccc3oc2=O)cc1OC | > 100 |
| CCC(=O)O[C@H]1CC[C@H]2[C@@H]3CCC4=C/C(=N/OC(=O)c5cccc6cc7ccccc7nc56)CC[C@]4(C)[C@H]3CC[C@]12C | > 100 |
| CC(=O)OCC1OC(n2c(C)cc(C)c(C#N)c2=S)C(OC(C)=O)C(OC(C)=O)C1OC(C)=O (stereo not given) | > 100 |
| COC(=O)NC(C(F)(F)F)(C(F)(F)F)P1(=O)OCCCO1 | 34 |
| Cc1cc(/N=C/c2ccc(F)cc2)n(-c2ccccc2)n1 | > 100 |
| CCOC(=O)/C=C(/C(=O)OCC)n1cnc2c(=O)[nH]c(NC(C)=O)nc21 | > 100 |
| O=C1NC(N/N=C\C(O)C(O)C(O)C(O)CO)=N/C1=C/c1ccc(Cl)cc1 (stereo not given) | > 100 |
| CCOC(=O)Cc1ccc(Nc2nc3ccccc3nc2C(=O)OCC)cc1 | > 100 |
| CC(C)(C)[Si](C)(C)Oc1ccc(C2CNC(=O)C23CCC(=O)N3Cc2ccccc2)cc1 (stereo not given) | 29.2 |

Tested on: KM12 colon
Experiment: NCI anticancer screen, dose series, 48 h

| SMILES | TGI [µM] |
| --- | --- |
| O=C(N(O)c1ccccc1Cl)C(O)(c1ccccc1)c1ccccc1 | > 100 |
| CCOC(=O)c1nc2cc(F)c(N3CCOCC3)cc2[nH]c1=O | > 100 |
| CCCC(=O)N1CCN(c2ccc3c(c2)OC(C)O3)CC1 (stereo not given) | > 100 |
| COC(=O)C1=C(O)c2ccc(Cl)cc2S(=O)(=O)N1C | > 100 |
| CCOC(=O)[C@H](C)OC(=O)[C@@](C)(NC(=O)c1ccccc1C(=O)OC)[C@@H]1NC=C(C(=O)OC)CS1 | > 100 |
| CC1(C)OC2C(O)C(CO)OC2(C(F)F)O1 (stereo not given) | > 100 |
| COCOC1C=CCCCC2=CC(C)=C(CC1)O2 (stereo not given) | > 100 |
| Cn1c2ccccc2c(=O)c2cccc(C(=O)NC(CS)C(=O)O)c21 (stereo not given) | > 100 |
| COc1ccc(-c2cc3ccccc3oc2=O)cc1OC | > 100 |
| CCC(=O)O[C@H]1CC[C@H]2[C@@H]3CCC4=C/C(=N/OC(=O)c5cccc6cc7ccccc7nc56)CC[C@]4(C)[C@H]3CC[C@]12C | > 100 |
| CC(=O)OCC1OC(n2c(C)cc(C)c(C#N)c2=S)C(OC(C)=O)C(OC(C)=O)C1OC(C)=O (stereo not given) | > 100 |
| COC(=O)NC(C(F)(F)F)(C(F)(F)F)P1(=O)OCCCO1 | 64.7 |
| Cc1cc(/N=C/c2ccc(F)cc2)n(-c2ccccc2)n1 | > 100 |
| CCOC(=O)/C=C(/C(=O)OCC)n1cnc2c(=O)[nH]c(NC(C)=O)nc21 | > 100 |
| Nc1ccn([C@H]2CO[C@@H](CO)[C@@H]2O)c(=O)n1 | > 100 |
| O=C1NC(N/N=C\C(O)C(O)C(O)C(O)CO)=N/C1=C/c1ccc(Cl)cc1 (stereo not given) | > 100 |
| CCOC(=O)Cc1ccc(Nc2nc3ccccc3nc2C(=O)OCC)cc1 | > 100 |
| CC(C)[Si]1(C(C)C)OCC2OC3(CO)C(Oc4nc(=O)ccn43)C2O[Si](C(C)C)(C(C)C)O1 (stereo not given) | 30.8 |
| CC(C)(C)[Si](C)(C)Oc1ccc(C2CNC(=O)C23CCC(=O)N3Cc2ccccc2)cc1 (stereo not given) | > 100 |
